These results are taken from patent EP4810020A1, “NANOPARTICLE ADIPOSOME ENCAPSULATING HYDROPHOBIC SMALL-MOLECULE DRUG, PREPARATION METHOD THEREFOR, AND USE THEREOF” (WeCareLife Biotech Co., Ltd., priority 2023, dated 2025).

A short description of series [1]: dissolution / appearance in PBS. The protocol:
Paclitaxel and the prepared paclitaxel adiposomes were dissolved in PBS, respectively.

For series [2] the following is noted: cited from earlier work.

Where two headings read alike, the source gives them in different places. Square brackets hold non-standard residues; d marks the D form. Peptide text beside a SMILES is read from it. * marks the point of attachment. Dolaproine = CO[C@@H]([C@@H]1CCCN1)[C@@H](C)C(=O)O; Dil = CC[C@H](C)[C@H](NC)[C@@H](CC(=O)O)OC; X1 = C[C@@H](N*)[C@@H](O)c1ccccc1; NMeV = CN[C@H](C(=O)O)C(C)C

On to `CC(=O)O[C@H]1C(=O)[C@@]2(C)[C@H]([C@H](OC(=O)c3ccccc3)[C@]3(O)C[C@H](OC(=O)[C@H](O)[C@@H](NC(=O)c4ccccc4)c4ccccc4)C(C)=C1C3(C)C)[C@]1(OC(C)=O)CO[C@@H]1C[C@@H]2O` [Paclitaxel], for which the “solubility / state in PBS” value in series [1] (in PBS) is recorded as “very low solubility in PBS”.
Turning to `C=CCc1ccc(O)c(-c2ccc(O)c(CC=C)c2)c1` [Honokiol], the “solubility / state in PBS” value in series [1] is “very low solubility in PBS”.
In general, logP refers to the decadic logarithm of the partition coefficient of the neutral form, usually between octanol and water. In the case of `CC[C@@]1(O)C(=O)OCc2c1cc1n(c2=O)Cc2cc3ccccc3nc2-1` [Camptothecin], the “solubility / state in PBS” value in series [1] (in PBS) is “very low solubility in PBS”. For the same molecule, the logP in series [2] is reported as 1.9.
As for `CC[C@H](C)[C@@H]([C@@H](CC(=O)N1CCC[C@H]1[C@H](OC)[C@@H](C)C(=O)N[C@H](C)[C@@H](O)c1ccccc1)OC)N(C)C(=O)[C@@H](NC(=O)[C@@H](NC)C(C)C)C(C)C` [Monomethyl auristatin E] (H-[NMeV]V[Dil][Dolaproine]-X1), the “solubility / state in PBS” value in series [1] (in PBS) is reported as “very low solubility in PBS”. In addition, in series [2], the logP is 3.4.
